Results reported in patent publication US11021467B2, “Phosphatidylinositol 3-kinase inhibitors” (Gilead Sciences, Inc., priority 2014, dated 2021).

What was measured:
Assay in all cases: TR-FRET enzymatic activity assay against PI3K isoforms
Type in all cases: biochemical
PI3Kβ = PI3Kβ (Homo sapiens (Human), UniProt P42338); settings: PI3Kβ, TR-FRET, 2×Km ATP, 30 minutes at 25° C.
Excerpt: (§1) The compounds of formula (I) were characterized for their enzymatic activity against the PI3K isoforms. […] TR-FRET monitored the formation of 3,4,5-inositol triphosphate molecule that competed with fluorescently labeled PIP3 for binding to the GRP-1 pleckstrin homology domain protein.

PI3Kγ = PI3Kγ (Homo sapiens (Human), UniProt P48736); settings: 2×Km ATP, 30 minutes at 25° C.
Excerpt: as §1

PI3Kδ = PI3Kδ (Homo sapiens (Human), UniProt O00329); settings: 2×Km ATP, 30 minutes at 25° C.
Excerpt: as §1

Chain of PI3Kγ (P48736 whole entry): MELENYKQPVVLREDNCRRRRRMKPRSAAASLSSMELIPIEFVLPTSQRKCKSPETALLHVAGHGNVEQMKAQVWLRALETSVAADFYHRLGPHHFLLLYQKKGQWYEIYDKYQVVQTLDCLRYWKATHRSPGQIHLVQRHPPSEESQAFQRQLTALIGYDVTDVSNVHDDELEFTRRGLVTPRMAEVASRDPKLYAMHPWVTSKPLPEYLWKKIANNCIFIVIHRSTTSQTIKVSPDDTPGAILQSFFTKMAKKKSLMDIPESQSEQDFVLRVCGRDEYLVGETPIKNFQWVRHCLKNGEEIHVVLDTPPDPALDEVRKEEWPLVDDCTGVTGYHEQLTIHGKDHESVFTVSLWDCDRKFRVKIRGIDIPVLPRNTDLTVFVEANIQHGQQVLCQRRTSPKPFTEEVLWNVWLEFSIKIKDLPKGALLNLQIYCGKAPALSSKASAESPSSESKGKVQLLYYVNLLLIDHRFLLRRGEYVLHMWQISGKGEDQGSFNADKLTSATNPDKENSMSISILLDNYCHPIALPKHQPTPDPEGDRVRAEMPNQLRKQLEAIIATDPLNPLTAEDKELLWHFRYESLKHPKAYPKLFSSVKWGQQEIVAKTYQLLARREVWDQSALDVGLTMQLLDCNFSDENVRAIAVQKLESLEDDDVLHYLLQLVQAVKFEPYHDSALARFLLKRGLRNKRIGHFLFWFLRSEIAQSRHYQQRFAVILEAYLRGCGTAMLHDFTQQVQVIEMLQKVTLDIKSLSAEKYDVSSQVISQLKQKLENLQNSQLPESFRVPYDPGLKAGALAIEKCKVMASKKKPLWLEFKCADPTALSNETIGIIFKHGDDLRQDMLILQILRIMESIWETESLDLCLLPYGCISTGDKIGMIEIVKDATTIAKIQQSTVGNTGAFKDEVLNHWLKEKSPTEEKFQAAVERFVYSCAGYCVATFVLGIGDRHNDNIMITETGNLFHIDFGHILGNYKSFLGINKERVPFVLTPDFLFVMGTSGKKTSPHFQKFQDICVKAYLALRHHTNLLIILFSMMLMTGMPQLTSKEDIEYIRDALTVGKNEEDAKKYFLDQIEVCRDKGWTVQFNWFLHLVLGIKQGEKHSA
Chain of PI3Kβ (P42338 whole entry, the tested form may be a part, canonical isoform): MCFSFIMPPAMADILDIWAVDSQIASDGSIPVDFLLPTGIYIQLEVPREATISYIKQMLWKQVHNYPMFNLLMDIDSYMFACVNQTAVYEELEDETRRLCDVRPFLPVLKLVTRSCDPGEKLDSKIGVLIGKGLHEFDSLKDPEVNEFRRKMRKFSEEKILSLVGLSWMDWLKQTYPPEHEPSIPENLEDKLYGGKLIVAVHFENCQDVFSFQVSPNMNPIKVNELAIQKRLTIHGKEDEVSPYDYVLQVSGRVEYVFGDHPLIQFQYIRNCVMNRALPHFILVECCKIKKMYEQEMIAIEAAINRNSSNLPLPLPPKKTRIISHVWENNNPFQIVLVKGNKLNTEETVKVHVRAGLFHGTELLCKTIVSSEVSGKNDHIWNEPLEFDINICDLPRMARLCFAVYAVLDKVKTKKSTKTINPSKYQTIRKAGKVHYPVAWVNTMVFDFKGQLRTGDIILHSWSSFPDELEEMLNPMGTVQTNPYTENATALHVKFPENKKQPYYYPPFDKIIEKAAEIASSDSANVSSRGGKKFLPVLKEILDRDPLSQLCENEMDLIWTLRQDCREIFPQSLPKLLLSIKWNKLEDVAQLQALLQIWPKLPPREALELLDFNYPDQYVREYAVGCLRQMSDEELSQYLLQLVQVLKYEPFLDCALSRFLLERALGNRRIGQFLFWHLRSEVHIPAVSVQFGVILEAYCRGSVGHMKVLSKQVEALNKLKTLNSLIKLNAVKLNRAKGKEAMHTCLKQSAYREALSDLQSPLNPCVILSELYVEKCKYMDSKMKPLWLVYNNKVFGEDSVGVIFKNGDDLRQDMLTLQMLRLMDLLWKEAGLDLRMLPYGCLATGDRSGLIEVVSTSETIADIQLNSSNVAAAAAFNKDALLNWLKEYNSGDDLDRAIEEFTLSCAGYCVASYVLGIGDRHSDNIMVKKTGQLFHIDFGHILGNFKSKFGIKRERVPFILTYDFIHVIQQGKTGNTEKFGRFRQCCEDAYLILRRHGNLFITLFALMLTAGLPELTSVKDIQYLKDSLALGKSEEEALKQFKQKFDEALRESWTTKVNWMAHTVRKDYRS
Chain of PI3Kβ (P27986 whole entry partner, the tested form may be a part, canonical isoform): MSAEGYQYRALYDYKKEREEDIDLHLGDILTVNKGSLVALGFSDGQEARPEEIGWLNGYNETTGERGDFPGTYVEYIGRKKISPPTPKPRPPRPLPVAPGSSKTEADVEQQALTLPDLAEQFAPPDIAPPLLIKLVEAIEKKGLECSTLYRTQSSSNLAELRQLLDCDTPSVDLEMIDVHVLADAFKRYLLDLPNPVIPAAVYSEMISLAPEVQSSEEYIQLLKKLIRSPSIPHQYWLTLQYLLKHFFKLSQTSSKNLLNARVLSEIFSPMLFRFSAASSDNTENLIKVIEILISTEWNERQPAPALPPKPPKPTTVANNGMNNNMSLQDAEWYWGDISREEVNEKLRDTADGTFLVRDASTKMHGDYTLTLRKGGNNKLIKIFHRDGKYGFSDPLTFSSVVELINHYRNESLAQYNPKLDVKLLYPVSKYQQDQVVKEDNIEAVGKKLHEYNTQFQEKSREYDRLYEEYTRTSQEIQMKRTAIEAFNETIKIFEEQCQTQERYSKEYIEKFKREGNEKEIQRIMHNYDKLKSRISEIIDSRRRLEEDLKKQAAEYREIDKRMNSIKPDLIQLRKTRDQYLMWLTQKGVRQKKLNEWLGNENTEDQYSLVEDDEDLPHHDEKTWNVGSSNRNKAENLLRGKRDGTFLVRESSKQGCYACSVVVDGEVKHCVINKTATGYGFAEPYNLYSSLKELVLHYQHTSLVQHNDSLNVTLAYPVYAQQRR
Chain of PI3Kδ (O00329 whole entry): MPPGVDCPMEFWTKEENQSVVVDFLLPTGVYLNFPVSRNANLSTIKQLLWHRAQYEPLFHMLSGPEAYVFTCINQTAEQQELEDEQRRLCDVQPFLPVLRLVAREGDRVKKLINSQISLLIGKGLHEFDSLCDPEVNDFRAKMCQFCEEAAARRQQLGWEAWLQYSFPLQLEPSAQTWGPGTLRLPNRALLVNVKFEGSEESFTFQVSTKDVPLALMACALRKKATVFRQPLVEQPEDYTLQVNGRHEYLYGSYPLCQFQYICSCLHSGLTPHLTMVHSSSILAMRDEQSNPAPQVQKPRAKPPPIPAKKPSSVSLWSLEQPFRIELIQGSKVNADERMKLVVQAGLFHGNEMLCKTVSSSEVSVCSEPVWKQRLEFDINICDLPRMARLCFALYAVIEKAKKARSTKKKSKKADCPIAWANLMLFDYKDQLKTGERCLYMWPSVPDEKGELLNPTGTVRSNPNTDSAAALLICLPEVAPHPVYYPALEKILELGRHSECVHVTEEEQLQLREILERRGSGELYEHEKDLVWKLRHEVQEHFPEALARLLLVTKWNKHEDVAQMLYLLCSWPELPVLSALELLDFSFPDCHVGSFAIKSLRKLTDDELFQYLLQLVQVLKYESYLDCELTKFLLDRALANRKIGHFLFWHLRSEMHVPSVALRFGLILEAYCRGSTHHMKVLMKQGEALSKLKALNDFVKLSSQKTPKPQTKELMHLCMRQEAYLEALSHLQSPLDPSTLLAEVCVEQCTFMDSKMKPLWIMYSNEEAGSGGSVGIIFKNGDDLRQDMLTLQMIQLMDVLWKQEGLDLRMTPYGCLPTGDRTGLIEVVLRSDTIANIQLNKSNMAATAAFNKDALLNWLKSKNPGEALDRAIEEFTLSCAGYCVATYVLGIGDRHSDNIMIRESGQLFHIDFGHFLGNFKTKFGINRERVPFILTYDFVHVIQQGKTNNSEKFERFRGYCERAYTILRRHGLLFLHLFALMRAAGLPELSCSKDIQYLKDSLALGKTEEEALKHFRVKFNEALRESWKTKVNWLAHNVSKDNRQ
Chain of PI3Kδ (P27986 whole entry partner): as the sequence (P27986 whole entry partner, the tested form may be a part, canonical isoform) above

| IC50 (PI3Kβ) [µM] | IC50 (PI3Kγ) [µM] | IC50 (PI3Kδ) [µM] | Compound |
| --- | --- | --- | --- |
| 0.047 | 0.32 | 0.005 | C[C@H](Nc1nc(N)nc(N)c1C#N)c1nc2cccc(Cl)c2c(=O)n1Cc1nc[nH]n1 [Compound 81, (S)-4-((1-(3-((1H-1,2,4-triazol-3-yl)methyl)-5-chloro-4-oxo-3,4-dihydroquinazolin-2-yl)ethyl)amino)-2,6-diaminopyrimidine-5-carbonitrile] |
| 0.15 | 2.3 | 0.005 | C[C@H](Nc1ncnc(N)c1C#N)c1nc2cccc(Cl)c2c(=O)n1[C@H]1C[C@@H](O)C1 [Compound 82, 4-amino-6-(((S)-1-(5-chloro-3-((1S,3R)-3-hydroxycyclobutyl)-4-oxo-3,4-dihydroquinazolin-2-yl)ethyl)amino)pyrimidine-5-carbonitrile] |
| 0.18 | 2.9 | 0.006 | C[C@H](Nc1ncnc(N)c1C#N)c1nc2cccc(Cl)c2c(=O)n1CCCO [Compound 83, (S)-4-amino-6-((1-(5-chloro-3-(3-hydroxypropyl)-4-oxo-3,4-dihydroquinazolin-2-yl)ethyl)amino)pyrimidine-5-carbonitrile] |
| 0.26 | 2.9 | 0.004 | CC(CCO)n1c([C@H](C)Nc2ncnc(N)c2C#N)nc2cccc(Cl)c2c1=O (stereo partly drawn) [Compound 84, 4-amino-6-(((1S)-1-(5-chloro-3-(4-hydroxybutan-2-yl)-4-oxo-3,4-dihydroquinazolin-2-yl)ethyl)amino)pyrimidine-5-carbonitrile] |
| 0.092 | 1.2 | 0.003 | C[C@H](Nc1ncnc(N)c1C#N)c1nc2cccc(Cl)c2c(=O)n1[C@H]1CC[C@H](O)CC1 [Compound 85, (S)-4-amino-6-((1-(5-chloro-3-(4-hydroxycyclohexyl)-4-oxo-3,4-dihydroquinazolin-2-yl)ethyl)amino)pyrimidine-5-carbonitrile] |
| 0.62 | ≥ 10 | 0.024 | C[C@H](Nc1ncnc(N)c1C#N)c1nc2cccc(Cl)c2c(=O)n1[C@H]1C[C@H](N)C1 [Compound 86, (S)-4-amino-6-((1-(3-(3-aminocyclobutyl)-5-chloro-4-oxo-3,4-dihydroquinazolin-2-yl)ethyl)amino)pyrimidine-5-carbonitrile] |
| 0.15 | ≥ 10 | 0.004 | C[C@H](Nc1ncnc(N)c1C#N)c1nc2cccc(Cl)c2c(=O)n1CC1CCNCC1 [Compound 87, (S)-4-amino-6-((1-(5-chloro-4-oxo-3-(piperidin-4-ylmethyl)-3,4-dihydroquinazolin-2-yl)ethyl)amino)pyrimidine-5-carbonitrile] |
| 0.25 | ≥ 10 | 0.042 | C[C@H](Nc1ncnc(N)c1C#N)c1nc2cccc(Cl)c2c(=O)n1CC1CNCCO1 (stereo partly drawn) [Compound 88, 4-amino-6-(((1S)-1-(5-chloro-3-(morpholin-2-ylmethyl)-4-oxo-3,4-dihydroquinazolin-2-yl)ethyl)amino)pyrimidine-5-carbonitrile] |
| 0.054 | ≥ 10 | 0.003 | C[C@H](Nc1ncnc(N)c1C#N)c1nc2cccc(Cl)c2c(=O)n1CC1CCNC1 (stereo partly drawn) [Compound 89, 4-amino-6-(((1S)-1-(5-chloro-4-oxo-3-(pyrrolidin-3-ylmethyl)-3,4-dihydroquinazolin-2-yl)ethyl)amino)pyrimidine-5-carbonitrile] |
| 2.8 | ≥ 10 | 0.037 | C[C@H](Nc1ncnc(N)c1C#N)c1nc2cccc(Cl)c2c(=O)n1CC1CCCN1 (stereo partly drawn) [Compound 90, 4-amino-6-(((1S)-1-(5-chloro-4-oxo-3-(pyrrolidin-2-ylmethyl)-3,4-dihydroquinazolin-2-yl)ethyl)amino)pyrimidine-5-carbonitrile] |
| 1.7 | ≥ 10 | 0.095 | C[C@H](Nc1ncnc(N)c1C#N)c1nc2cccc(Cl)c2c(=O)n1CC1CCCCN1 (stereo partly drawn) [Compound 91, 4-amino-6-(((1S)-1-(5-chloro-4-oxo-3-(piperidin-2-ylmethyl)-3,4-dihydroquinazolin-2-yl)ethyl)amino)pyrimidine-5-carbonitrile] |
| 0.32 | ≥ 10 | 0.007 | C[C@H](Nc1ncnc(N)c1C#N)c1nc2cccc(Cl)c2c(=O)n1CC1CCCNC1 (stereo partly drawn) [Compound 92, 4-amino-6-(((1S)-1-(5-chloro-4-oxo-3-(piperidin-3-ylmethyl)-3,4-dihydroquinazolin-2-yl)ethyl)amino)pyrimidine-5-carbonitrile] |
| 0.004 | 0.158 | 0.001 | C[C@H](Nc1nc(N)nc(N)c1C#N)c1nc2cccc(Cl)c2c(=O)n1[C@H]1C[C@@H](O)C1 [Compound 93, 2,4-diamino-6-(((S)-1-(5-chloro-3-((cis)-3-hydroxycyclobutyl)-4-oxo-3,4-dihydroquinazolin-2-yl)ethyl)amino)pyrimidine-5-carbonitrile] |
| 0.19 | 1.59 | 0.014 | C[C@H](Nc1nc(N)nc(N)c1Cl)c1nc2cccc(Cl)c2c(=O)n1[C@H]1C[C@@H](O)C1 [Compound 94, 5-chloro-2-((S)-1-((2,6-diamino-5-chloropyrimidin-4-yl)amino)ethyl)-3-((cis)-3-hydroxycyclobutyl)quinazolin-4(3H)-one] |
| 0.72 | ≥ 10 | 0.016 | Nc1nc(N)c(Cl)c(N[C@H](c2nc3c(Cl)ccc(Cl)c3c(=O)n2[C@H]2C[C@@H](O)C2)C2CC2)n1 [Compound 95, 5,8-dichloro-2-((S)-cyclopropyl((2,6-diamino-5-chloropyrimidin-4-yl)amino)methyl)-3-((cis)-3-hydroxycyclobutyl)quinazolin-4(3H)-one] |
| 0.01 | 0.96 | 0.002 | N#Cc1c(N)nc(N)nc1N[C@H](c1nc2c(Cl)ccc(Cl)c2c(=O)n1[C@H]1C[C@@H](O)C1)C1CC1 [Compound 96, 2,4-diamino-6-(((S)-cyclopropyl(5,8-dichloro-3-((cis)-3-hydroxycyclobutyl)-4-oxo-3,4-dihydroquinazolin-2-yl)methyl)amino)pyrimidine-5-carbonitrile] |
| 0.058 | 2.8 | 0.008 | N#Cc1c(N)nc(N)nc1N[C@H](c1nc2c(Cl)cc(F)cc2c(=O)n1[C@H]1C[C@H](O)C1)C1CC1 [Compound 97, 2,4-diamino-6-(((S)-(8-chloro-6-fluoro-3-((trans)-3-hydroxycyclobutyl)-4-oxo-3,4-dihydroquinazolin-2-yl)(cyclopropyl)methyl)amino)pyrimidine-5-carbonitrile] |
| 0.33 | 3.2 | 0.02 | C[C@H](Nc1nc(N)nc(N)c1C#N)c1nc2c(Cl)cc(F)cc2c(=O)n1[C@H]1C[C@H](O)C1 [Compound 98, 2,4-diamino-6-(((S)-1-(8-chloro-6-fluoro-3-((trans)-3-hydroxycyclobutyl)-4-oxo-3,4-dihydroquinazolin-2-yl)ethyl)amino)pyrimidine-5-carbonitrile] |
| 0.29 | 2.4 | 0.009 | C[C@H](Nc1nc(N)nc(N)c1C#N)c1nc2c(Cl)cc(F)cc2c(=O)n1[C@H]1C[C@@H](O)C1 [Compound 99, 2,4-diamino-6-(((S)-1-(8-chloro-6-fluoro-3-((cis)-3-hydroxycyclobutyl)-4-oxo-3,4-dihydroquinazolin-2-yl)ethyl)amino)pyrimidine-5-carbonitrile] |
| 0.044 | 2.9 | 0.003 | N#Cc1c(N)nc(N)nc1N[C@H](c1nc2c(Cl)ccc(Cl)c2c(=O)n1[C@H]1C[C@H](O)C1)C1CC1 [Compound 100, 2,4-diamino-6-(((S)-cyclopropyl(5,8-dichloro-3-((trans)-3-hydroxycyclobutyl)-4-oxo-3,4-dihydroquinazolin-2-yl)methyl)amino)pyrimidine-5-carbonitrile] |
| 0.14 | 3.2 | 0.012 | C[C@H](Nc1nc(N)nc(N)c1C#N)c1nc2c(Cl)ccc(Cl)c2c(=O)n1[C@H]1C[C@H](O)C1 [Compound 101, 2,4-diamino-6-(((S)-1-(5,8-dichloro-3-((trans)-3-hydroxycyclobutyl)-4-oxo-3,4-dihydroquinazolin-2-yl)ethyl)amino)pyrimidine-5-carbonitrile] |
| 0.066 | 1.1 | 0.002 | N#Cc1c(N)nc(N)nc1N[C@H](c1nc2c(Cl)cc(F)cc2c(=O)n1[C@H]1C[C@@H](O)C1)C1CC1 [Compound 102, 2,4-diamino-6-(((S)-(8-chloro-6-fluoro-3-((cis)-3-hydroxycyclobutyl)-4-oxo-3,4-dihydroquinazolin-2-yl)(cyclopropyl)methyl)amino)pyrimidine-5-carbonitrile] |
| 0.021 | 2.6 | 0.005 | C[C@H](Nc1nc(N)nc(N)c1C#N)c1nc2c(Cl)ccc(Cl)c2c(=O)n1[C@H]1C[C@@H](O)C1 [Compound 103, 2,4-diamino-6-(((S)-1-(5,8-dichloro-3-((cis)-3-hydroxycyclobutyl)-4-oxo-3,4-dihydroquinazolin-2-yl)ethyl)amino)pyrimidine-5-carbonitrile] |
| 0.058 | 0.078 | 0.009 | C[C@H](Nc1nc(N)nc(N)c1C#N)c1nc2cccc(Cl)c2c(=O)n1CCC#N [Compound 104, (S)-2,4-diamino-6-((1-(5-chloro-3-(2-cyanoethyl)-4-oxo-3,4-dihydroquinazolin-2-yl)ethyl)amino)pyrimidine-5-carbonitrile] |
| 0.82 | 8.4 | 0.009 | COCCCn1c([C@H](C)Nc2ncnc(N)c2C#N)nc2cccc(Cl)c2c1=O [Compound 105, (S)-4-amino-6-((1-(5-chloro-3-(3-methoxypropyl)-4-oxo-3,4-dihydroquinazolin-2-yl)ethyl)amino)pyrimidine-5-carbonitrile] |
